From the supplement of paper PMC11208160

Experiment: recombinant UMI read abundance after kanamycin selection (control-corrected) (log10(CPM+1)); higher = more efficient recombination; extreme values may be limits of the assay; sequences stand for … in AGTGCAGAGAAAATCGGCCAGTTTTCTCTGCCTGCAGTCCGCATGCCGTGGGACCCCTTGGGTTCTAACCTGTTGCCTAGATTTATGCAGCGGACTGCCTTTCTCCCAAAGTGATAAACCGG…AGGTTGGTTTCACT; site = the 11-nt donor
How it was run: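 Under IPTG (0.07 mM) plus kanamycin, or without selection, Escherichia coli carrying a UMI-tagged donor and donor-binding-loop pair library and a target plasmid for the IS621 bridge recombinase were plated in two replicates. Recombinant UMIs were PCR-amplified across the donor–target junction and sequenced. Counts were converted to CPM, averaged over replicates, scaled by control-derived factors and reported as log10(CPM+1).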
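Further: IS621 bridge recombinase in Escherichia coli cells against a fixed T5 target plasmid.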

| Sequence | recombinant UMI read abundance (log10) |
| --- | --- |
| CGTGTCGCATGGACCGGTTTTCCCGGTAATCCGTATTTGTG (site CGTGTCGCTCA) | 0.701 |
| CGTGTGTCATGGACCGGTTTTCCCGGTAATCCGTATTTGGA (site CGTGTGTCTTC) | 1.86 |
| CGTTAGACATGGACCGGTTTTCCCGGTAATCCGTATTTGCG (site CGTTAGACTCA) | 0.0494 |
| CGTTAGACATGGACCGGTTTTCCCGGTAATCCGTATTTGCG (site CGTTAGACTCC) | 0.0162 |
| CGTTAGACATGGACCGGTTTTCCCGGTAATCCGTATTTGCG (site CGTTAGACTCG) | 1.85 |
| CGTTAGACATGGACCGGTTTTCCCGGTAATCCGTATTTGCG (site CGTTAGACTCT) | 0.911 |
| CGTTAGCCATGGACCGGTTTTCCCGGTAATCCGTATTTGAG (site CGTTAGACTCT) | 0.00766 |
| CGTTAGCCATGGACCGGTTTTCCCGGTAATCCGTATTTGAG (site CGTTAGCCTCT) | 0.184 |
| CGTTAGCCATGGACCGGTTTTCCCGGTAATCCGTATTTGAG (site CGTTAGGCTCT) | 0.00758 |
| CGTTAGCCATGGACCGGTTTTCCCGGTAATCCGTATTTGAG (site CGTTAGTCTCT) | 0.737 |
| CGTTATACATGGACCGGTTTTCCCGGTAATCCGTATTTGAG (site CGTTAAACTCT) | 0 |
| CGTTATACATGGACCGGTTTTCCCGGTAATCCGTATTTGAG (site CGTTACACTCT) | 0.0313 |
| CGTTATACATGGACCGGTTTTCCCGGTAATCCGTATTTGAG (site CGTTAGACTCT) | 0.0101 |
| CGTTATACATGGACCGGTTTTCCCGGTAATCCGTATTTGAG (site CGTTATACTCT) | 1.25 |
| CGTTATCCATGGACCGGTTTTCCCGGTAATCCGTATTTGTC (site CGTTATCCTGA) | 1.46 |
| CGTTCATCATGGACCGGTTTTCCCGGTAATCCGTATTTGCC (site CGATCATCTAG) | 0 |

| Sequence | recombinant UMI read abundance (log10) |
| --- | --- |
| CGTTCATCATGGACCGGTTTTCCCGGTAATCCGTATTTGCC (site CGTTCATCTGG) | 2.32 |
| CGTTCATCATGGACCGGTTTTCCCGGTAATCCGTATTTGTG (site CGTTCATCTCA) | 0.00491 |
| CGTTCCCCATGGACCGGTTTTCCCGGTAATCCGTATTTGTG (site CGTTCCCCTCA) | 0.365 |
| CGTTCGACATGGACCGGTTTTCCCGGTAATCCGTATTTGTT (site CGATCGACTAA) | 0.0104 |
| CGTTCGACATGGACCGGTTTTCCCGGTAATCCGTATTTGTT (site CGCTCGACTAA) | 0.0144 |
| CGTTCGACATGGACCGGTTTTCCCGGTAATCCGTATTTGTT (site CGGTCGACTAA) | 0.0244 |
| CGTTCGACATGGACCGGTTTTCCCGGTAATCCGTATTTGTT (site CGTTCGACTAA) | 0.0172 |
| CGTTCGTCATGGACCGGTTTTCCCGGTAATCCGTATTTGCT (site CGATCATCTAG) | 0 |
| CGTTCGTCATGGACCGGTTTTCCCGGTAATCCGTATTTGCT (site CGTTCGTCTAG) | 1.95 |
| CGTTGAACATGGACCGGTTTTCCCGGTAATCCGTATTTGTT (site CGTAGAACTAA) | 0.00276 |
| CGTTGAACATGGACCGGTTTTCCCGGTAATCCGTATTTGTT (site CGTCGAACTAA) | 0.0175 |
| CGTTGAACATGGACCGGTTTTCCCGGTAATCCGTATTTGTT (site CGTGGAACTAA) | 0.0247 |
| CGTTGAACATGGACCGGTTTTCCCGGTAATCCGTATTTGTT (site CGTTGAACTAA) | 0.623 |
| CGTTGTGCATGGACCGGTTTTCCCGGTAATCCGTATTTGAG (site CGTTGTGCTCT) | 1.77 |
| CGTTTGGCATGGACCGGTTTTCCCGGTAATCCGTATTTGCC (site CGTTTGGCTAG) | 0 |
| CGTTTGGCATGGACCGGTTTTCCCGGTAATCCGTATTTGCC (site CGTTTGGCTCG) | 0.0176 |
